In brackets after ≈: the same amount, converted by molar mass. Read-outs that look alike come from different tables or passages of the source.
Tests used:
H1299 cells = test: Anti-proliferative effect by Cell Titer-Glo, H1299; assay type: cell-based; conditions: Homo sapiens, NCI-H1299, 72 h, read-out: IC50 measured value H1299
Procedure: Compound solutions of different concentration gradients were prepared. DMSO was dissolved to a concentration of 10 mM test compound and 10 mM reference compound AZD1775, and the compounds were serially diluted in culture medium for a total of 9 dose points, with 2 parallel replicates set at each concentration. The cell growth group without compound was used as a positive control (maximum signal control) and the medium was used as a negative control (minimum signal control), while ensuring that the final level of DMSO in each reaction well was 0.2%. After removing the medium from the 384-well plate, 25 ul of the configured compound at different concentrations was transferred into the well plate and the compound and cells were incubated in the cell incubator at 37° C. with 5% CO2 for 3 days.
The 384-well plates were removed from the cell incubator and allowed to equilibrate for 1 h to room temperature. 25 ul of Cell Titer-Glo assay was added to each well, lysed on a shaker for 2 min and then read out (Luminescence) using a BMG PHERAStar after 10 min incubation. Calculate the inhibition rate from the luminescence signal: first calculate the average of the positive control (maximum signal control) and the negative control (minimum signal control).
[formula] to calculate the rate of inhibition of the cells by different concentrations of the compounds. The IC50 of the compound on cell activity inhibition was calculated by fitting a log(inhibitor) vs. response-Variable slope model to GraphPad Prism 6. The fitted equation was: Y=Bottom+(Top−Bottom)/(1+10^((Log IC50−X)*HillSlope)), where Y represents the rate of inhibition and X represents the concentration of the known compound after Log.

[1] = Plasma protein binding (PPB), mouse; assay type: in vitro ADME; conditions: 5 h dialysis, read-out: Plasma protein binding rate (%) Mouse (converted)
Procedure: Sample preparation: The compound was dissolved in DMSO to a stock solution of 10 mM, then the compound was diluted with PBS to a secondary stock solution of 0.02 mM, and then the above 0.02 mM was diluted to 1 μM using blank plasma, which was the sample to be incubated.
Dialysis set-up preparation: 400 μL of blank PBS was first added to the white wells of the equilibrated dialysis plate and 200 μL of the configured plasma sample was added to the red wells, and the dialysis plate was sealed with a sealing film.
Recovery plate preparation: Two 96-well deep-well plates, labelled T0 and T5, were prepared and all plasma samples were added at n=2. 300 μL of acetonitrile (Verapamil-HCl, 4 ng/mL) was added directly to the TO plate, followed by 50 μL of blank PBS mix well for 5 min and left to stand in a 4° C. refrigerator until the end of the incubation.
Experimental Operation: The dialysis device and the T5 plate were incubated together for 5 h in a microplate thermostatic shaker (37° C., using 300 rpm or minimum speed). At the end of the incubation, 300 μL of acetonitrile (Verapamil-HCl, 4 ng/mL) was added and 50 μL of PBS solution was added. At the end of the dialysis incubation, a new 96-well deep well plate was taken. Add 50 μL of plasma well sample to the corresponding position of the 96-well plate, 300 μL of acetonitrile and 50 μL of blank PBS; take 50 μL of buffer well sample to the corresponding position of the 96-well plate, then add 300 μL of acetonitrile and 50 μL of blank plasma. Add 300 μL of acetonitrile (Verapamil-HCl, 4 ng/mL) to the plasma-containing wells of the T5 plate, and then 50 μL of PBS solution was added. Shake for 5 min to fully precipitate the proteins and centrifuge at 20,000 g for 10 min at 4° C. Add 200 μL of supernatant to 200 μL of pure water, mix well and perform LC-MS/MS analysis.
2. Data Processing and Parameter Calculation Plasma protein binding rate=[(Rpe−Rb)/Rpe]×100% Recovery=[(Rpe+Rb)/R5h]×100% Stability=(R5/R0)×100% where • Rpe=ratio of plasma-side testing sample peak area to internal standard • Rb=ratio of buffer side testing sample peak area to internal standard • R5=ratio of incubator stability sample peak area to internal standard • R0=ratio of refrigerator stability sample peak area to internal standard 3.

[2] = Membrane permeability study (Caco-2); assay type: in vitro ADME; conditions: human; for Papp A→B at 90 min, 10 µM / Papp B→A at 90 min, 10 µM: pH 7.4, Caco-2, 10 μM; for Papp A→B at 90 min, 10 µM: A to B; for Papp B→A at 90 min, 10 µM: B to A; for efflux ratio at 90 min, 10 µM: Caco-2, pH 7.4, read-out: Efflux Ration
Procedure: Caco-2 cells were purchased from the […] (Rockville, MD). The cell culture medium was modified Eagle's medium (MEM) containing 10% inactivated fetal bovine serum and 1% non-essential amino acids. Cells were inoculated on polycarbonate filter membranes (Cat no. 3396) and incubated at 37° C. in a 5% CO2 incubator.
The cells were incubated for 21-28 days after inoculation for transport experiments and the apparent permeability (Papp) of Lucifer Yellow was used to characterize and verify the compactness of the cell monolayer. A stock solution of 10 mM was prepared by dissolving the compound in DMSO and diluted using Hanks Balanced Salt Solution (HBSS, Invitrogen, Cat #14025-092) containing 25 mM HEPES (pH 7.4) to obtain the working solution. A 10 μM working solution of the compound to be tested was added to the apical side and basolateral side of Caco-2 and incubated at 37° C. for 90 min. After the incubation, dilute the samples on the apical side and basolateral side, and the concentrations of compounds on the apical and basolateral sides were detected by LC-MS/MS, and the concentrations of the compounds were quantified by standard curve.

Solubility test = assay type: physicochemical; conditions: aqueous buffer, thermodynamic from solid; buffer solution, shaken at constant temperature 24 h
Procedure: The compound was placed in a buffer solution and shaken at constant temperature for 24 h. […] Chromatographic conditions: C18 column, mobile phase A: 0.02 M potassium dihydrogen phosphate:acetonitrile=90:10, mobile phase B: acetonitrile; V: 1.0 ml/min, T: 35° C., λ: 210 nm.

CYP2C9 = CYP2C9 (Homo sapiens, UniProt P11712); test: Inhibition of cytochrome P450, CYP2C9; assay type: in vitro ADME; conditions: CYP2C9 enzyme, pH 7.4, probe BOMCC, read-out: CYP inhibition/% 2C9; for inhibition at 30 min, 1 µM: compound concentration 1 μM; for inhibition at 30 min, 10 µM: compound concentration 10 μM
Procedure: Enzymatic experiments were performed to quantify the inhibition of CYP450 enzyme activity of each isoform of CYP450 by small molecule inhibitors through fluorescence generated by the oxidation of the substrate by cytochrome P450. […] The Solution B composition used for the experiment was: 40 U/mL G6PDH (Sigma-aldrich, Cat #G6378). The substrate mix was 0.05× Solution A, 0.01× Solution B, 50 mM Potassium Phosphate, 0.01 mM BOMCC/0.01 mM EOMCC/0.001 mM DBOMF. […] The data were analyzed and processed using GraphPad Prism 6 software to obtain IC50 values.

[3] = H1299 cells, 3 days, Cell Titer-Glo

Chain of CYP2C9 (P11712 whole entry, canonical isoform): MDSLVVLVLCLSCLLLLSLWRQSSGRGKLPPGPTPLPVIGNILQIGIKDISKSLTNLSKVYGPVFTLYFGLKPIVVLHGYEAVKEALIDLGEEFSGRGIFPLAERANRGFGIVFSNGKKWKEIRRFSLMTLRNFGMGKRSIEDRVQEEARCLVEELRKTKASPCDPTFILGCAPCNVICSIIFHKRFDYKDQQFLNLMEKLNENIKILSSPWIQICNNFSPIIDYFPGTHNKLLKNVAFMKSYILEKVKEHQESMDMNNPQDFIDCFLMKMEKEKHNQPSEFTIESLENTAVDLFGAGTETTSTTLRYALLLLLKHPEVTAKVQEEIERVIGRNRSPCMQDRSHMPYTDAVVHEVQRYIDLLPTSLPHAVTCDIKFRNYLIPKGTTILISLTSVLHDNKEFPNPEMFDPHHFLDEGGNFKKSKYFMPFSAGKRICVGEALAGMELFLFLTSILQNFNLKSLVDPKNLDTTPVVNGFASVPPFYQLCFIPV

IC50 (H1299 cells; [3]) [nM] | fraction unbound at 5 h, 1 µM [1] | Papp A→B at 90 min, 10 µM [2] [×10⁻⁶ cm/s] | Papp B→A at 90 min, 10 µM [2] [×10⁻⁶ cm/s] | solubility at 24 h (Solubility test) [µg/mL] | efflux ratio at 90 min, 10 µM [2] | inhibition at 30 min, 1 µM (CYP2C9) [%] | inhibition at 30 min, 10 µM (CYP2C9) [%] | Compound | IC50 (H1299 cells) [nM]
100 to 1000 | 0.087 | 14.5 | 35.3 | 30 (≈ 59.9 µM) | – | – | – | C=CCn1c(=O)c2cnc(Nc3ccc(N4CCN(C)CC4)cc3)nc2n1-c1cccc(C(C)(C)O)n1 [AZD-1775, reference compound] | –
1000 to 5000 | – | – | – | – | – | -10.6 | -16 | CN1CCN(c2ccc(Nc3ncc4cnn(-c5cccc(C(C)(C)O)n5)c4n3)cc2)CC1 [Compound 2] | –
100 to 1000 | – | – | – | – | – | 15.3 | 13.1 | CS(C)(=O)=Nc1cccc(-n2ncc3cnc(Nc4ccc(N5CCOCC5)cc4)nc32)n1 [Compound 6] | –
100 to 1000 | 0.138 | 5.86 | 20.8 | – | 3.54 | – | – | Cc1cc(Nc2ncc3cnn(-c4cccc(N=S(C)(C)=O)n4)c3n2)ccc1N1CCC(N(C)C)CC1 [Compound 14] | –
100 to 1000 | 0.092 | 8.07 | 20.3 | 350 (≈ 712 µM) | 2.51 | – | – | Cc1cc(Nc2ncc3cnn(-c4cccc(N=S(C)(C)=O)n4)c3n2)ccc1N1CCN(C)CC1 [Compound 16] | –

Compound | IC50 (H1299 cells; [3]) [nM] | fraction unbound at 5 h, 1 µM [1] | Papp A→B at 90 min, 10 µM [2] [×10⁻⁶ cm/s] | Papp B→A at 90 min, 10 µM [2] [×10⁻⁶ cm/s] | solubility at 24 h (Solubility test) [µg/mL] | efflux ratio at 90 min, 10 µM [2] | inhibition at 30 min, 1 µM (CYP2C9) [%] | inhibition at 30 min, 10 µM (CYP2C9) [%] | IC50 (H1299 cells) [nM]
CN1CCN(c2ccc(Nc3ncc4cnn(-c5cccc(N=S(C)(C)=O)n5)c4n3)cc2)CC1 [Compound 1] | – | 0.226 | 8.93 | 41.7 | 120 (≈ 251 µM) | 4.67 | 7.5 | 18.6 | 1000 to 5000

— US12649748B2, “Wee1 inhibitor and use thereof” (JIANGSU TASLY DIYI PHARMACEUTICAL CO., LTD., priority 2021, dated 2026)
